Laboratory results taken from patent publication US12115167B2 (Woolsey Pharmaceuticals, Inc., priority 2022, dated 2024).
Structures can show the parent of a compound that is named as a salt.

Test: Stability of fasudil in 0.05M citrate buffer with and without EDTA, 60° C. for 36 days
Assay type: physicochemical
Conditions: 60° C. 36 days, in words
Experimental: Samples were stored at 60° C. for 36 days.

compatibility with EDTA: compatible with EDTA in citrate buffer
SMILES: O=S(=O)(c1cccc2cnccc12)N1CCCNCC1 [fasudil, hexahydro-1-(5-isoquinolinesulfonyl)-1H-1,4-diazepine monohydrochloride hemihydrate]
